Experimental data published in patent EP0773287A1, “Immortalised embryonic hyppocampal cells and their use” (BAYER AG, priority 1995, dated 1997).
pEC50: −log10 of the molar value. Read-outs that look alike come from different tables or passages of the source.

How the values were obtained:
Assay type in all cases: cell-based, murine
HNMMCV14.1.A [1] = assay: Whole-cell patch-clamp recording of ligand-activated currents
Protocol: (§1) Electrophysiological setup: Membrane currents were measured with the patchclamp technique in the whole-cell recording configuration (Hamill et al. 1981, Pfluegers Arch. 391:85-100). Current signals were amplified with conventional electronics (EPC-9 amplifier, HEKA Elektronik GmbH, Lambrecht, Germany), filtered at 10kHz, and sampled at 5 kHz by an interface connected to an IBM AT-compatible computer system, which also served as a stimulus generator.
(§2) Solutions and electrodes: The standard bathing solution contained (in mM): Nacl 150, KCL 5, MgCl2 1.8, HEPES 5, and glucose 10. In some experiments an equimolar amount of NaCl was replaced by 5mM BaCl2. Recording pipettes had resistances about 5MΩ (Hilgenberg, Malsfeld, Germany). The pipettes contained (in mM): KCL 140, CaCl2 0.5, EGTA 5, MgCl2 2, and HEPES 10. The pH was adjusted to 7.4. In some experiments the pipette solution was designed to minimize the contribution of voltage-activated currents. In this case, investigating the ligand-activated currents, the pipette solution contained (in mM): CsCl 140, EGTA 10, and HEPES 10.
(§3) Ligands were dissolved in the extracellular saline solution and applied via an U-tube application system. To record ligand-induced currents, the membrane potential was clamped to -70mV. For measurements of voltage-activated currents, cells were held at -70mV and every second the membrane was stepped through a 50 msec. de- or hyperpolarising test pulse to a potential between -170 and +20 mV.

HC e/n XVB cells = assay: as above; settings: for ligand-activated currents (electrophysiological recordings): membrane potential clamped to -70mV
Protocol: as §1, §2, §3

[2] = system: metabotropic glutamate receptor(s) (mGluR) expressed by HNMMCV14.1A cells; assay: Phosphoinositide hydrolysis: accumulation of 3H-inositol phosphates; settings: HNMMCV14.1A cells; agonist 1 h, LiCl 10 mM; read-out: EC50 inositolphosphate accumulation
Protocol: Phosphoinositide hydrolysis was determined by measuring the accumulation of ^3H-inositol phosphates. The cells were plated in 48-well plates (Costar) at a density of 10000 cells per well and incubated for 4-5 days at 37°C, 7% CO2. Then the cells were labeled by incubation with 4 µCi of myo-2-^3H-inositol per ml medium (specific activity: […]: Amersham). After 24 h LiCl (10 mM final concentration) was added to the cells for 1 h. Agonists were then added at the concentrations indicated. The incubation was stopped after 1 h by replacing the medium with 200 µl ice-cold methanol. 400 µl of destilled water was added and the sample was directly applied to AG-1X8 ion exchange columns (AG-1X8 resin: BioRad). Free inositol and glycerophosphoryl-inositol were washed away with 16 ml destilled water followed by 10 ml 5 mM disodium-tetraborate, 60 mM sodium formate. Total ^3H-inositol phosphates (IP1, IP2, IP3) were eluted with 7 ml of 100 mM formic acid, 1 M ammonium formate. Radioactivity of the eluted ^3H-inositol phosphates was determined by liquid scintillation counting after addition of 13 ml liquid scintillation cocktail (Ultima Gold: Canberra Packard). Measurements were performed in triplicates for each experimental point. Untreated controls were set as 100% and the other values calculated in relation to this.
The columns were prepared as follows: 1 ml pipet tips were filled with one glass bead (Roth) per tip before adding 500 µl AG-1X8 resin. The resin was compressed with air and 270 µl seasand was applied. Until use they were stored at 4°C.

HNMMCV13.1.E [3] = assay: Whole-cell patch-clamp recording of ligand-activated currents; settings: 13.1.E; membrane potential clamped to -70mV
Protocol: as §1, §2, §3

HNMMCV13.1.F = assay: Ca2+-imaging (Fura-2) of intracellular calcium after application of agonists
Protocol: (§4) Fluorescent Probe: Dynamic changes of intracellular calcium concentration were measured using the Fura-2 fluorescent probe (Roe et al. 1990, Cell Calcium 11:63-73). This fluorescent dye was chosen because of its selectivity, high quantum yield and extinction co-efficient. Fura-2 permeates the living cell as a acetoxymethylester and becomes trapped within the cell after hydrolysis by intracellular esterases. The calcium-sensitive free acid of Fura-2 is able to bind to calcium ions inside the cell. Fura-2 has an excitation maximum at 380 nm and the Fura2/calcium complex peaks at 340 nm. A change in intracellular calcium concentration was calculated by recording fluorescent video images at wavelengths of 340nm and 380nm excitation and 510nm emission and by dividing the grey values of the digitized video images of 380nm from 340nm.
(§5) Loading cells with Fura-2: A stock solution with 2mM Fura-2-acetoxymethylester in dimethylsulfoxide (DMSO) was diluted to 5-10 µM with serum free Minimal Essential Medium (MEM, Gibco) containing 1.5% bovine serum albumin and 5 mM calcium chloride. The cells were incubated in a Falcon 96 well plate for 45-60 minutes at 37°C. Subsequently the cells were washed twice in N-(2-Hydroxyethyl)piperazine-N'-(2-ethanesulfonic acid) (HEPES, 5mM) buffered Tyrode solution (HEPES buffered salt solution containing 130 mM NaCl, 5 mM KCl, 2 mM CaCl2, 1 mM MgCl2, 5mM NaHCO3, 11 mM Glucose).
(§6) Imaging procedure: 100 µl of Tyrode buffer was added to the plate wells and the cells were sequencially exposed to light at 340 nm and 380 nm under a fluorescent microscope (Nikon Diaphot). The exposition time was 100 ms. A series of video images at 3 second intervals was acquired and stored as digitised pictures in the image boards of an image analysis computer (Leica, Quantimet 570). After the acquisition of 8 images the test substances were applied. The grey levels of the cells, which correspond to the fluorescence intensity, were measured in the recorded video images. The ratio was determined by dividing the measured grey levels of the "380 nm images" by the grey levels of the "340 nm images" either from averaged images or from individual cells. For averaged results, the grey levels were measured over the whole images.
(§7) The cells were loaded with Fura 2/AM between day 3 and 7 in culture. A number of agonists were tested for their ability to activate specific receptors on the cell surface which lead to a rise in intracellular calcium. The rise in calcium concentration in the cytoplasm can occur after activation of specific calcium channels in the cell membrane, after activation of neurotransmitter receptors directly coupled to ion channels that are permeable to calcium ions (i.e. NMDA or AMPA type glutamate receptors), or by activation of receptors, which propagate the signal through the activation of specific G-proteins, which regulate the activity of different enzymes in the interior of the cell (Connor, Cell Calcium 14 (1993), 185-200; Crouch and Hendry, Medical Res. Rev. 13 (1993), 105-123). The activation of phospholipase C generates the second messengers diacylglycerol and inositoltriphosphate from phospholipids in the cell membrane. The binding of inositoltriphosphate to receptors localised on internal vesicles which store calcium ions leads to a transient rise in the concentration of calcium ions in the cytoplasm (Berridge, M.J. 1993, Nature 361: 315-325).

HNMMCV14.1.A [4] = assay: as above
Protocol: as §4, §5, §6, §7

HNMMCV13.1.E [5] = assay: as above
Protocol: as §4, §5, §6, §7

HC e/n XV.B cells = assay: as above
Protocol: as §4, §5, §6, §7

HNMMCV11.2.0 = assay: as above
Protocol: as §4, §5, §6, §7

[6] = system: v-myc-expressing lines and clones; assay: Induction of differentiation of immortalised cell lines and clones; settings: 1mM
Protocol: For experiments in the presence of growth factors or other differentiation inducing agents, the primary cell cultures or the immortalised cell lines were cultured in the presence of one or a combination of the following: β-FGF, 1ng/ml, (Collaborative Research), EGF; 5 ng/ml or 10 ng/ml, (Collaborative Research), NGF (10 ng/ml, Collaborative Reasearch), dibutyryl cyclic adenosine monophosphate (dbcAMP, 1mM, Sigma, Heidelberg), retinoic acid (5 µM; Sigma), IL-7 (50 U/ml), TGFα (5ng/ml).
To induce differentiation in vitro several combinations of the following factors were used: retinoic acid (RA, 10 µM), NGF, β-FGF, EGF, IL-7, TGFα, dbcAMP (1mM). In addition the effect of co-culture with cortical glial cells originating from postnatal day 0 to 1 and granule neurons originating from postnatal day 6 mice was investigated.

[7] = 14.1.A, membrane potential clamped to -70mV

CC(=O)OCC[N+](C)(C)C [Acetylcholine, acetylcholine]
ligand-activated currents (electrophysiological recordings) (HNMMCV14.1.A [1]; [7]): + (+: 10-30% positive cells) | ligand-activated currents (electrophysiological recordings) (HC e/n XVB cells; XV. B/ - EGF): -

NCCCC(=O)O [GABA]
ligand-activated currents (electrophysiological recordings) (HNMMCV14.1.A [1]; [7]): ++ (++: 30-70% positive cells) | ligand-activated currents (electrophysiological recordings) (HC e/n XVB cells; XV. B/ - EGF): +++ (+++: 70-100% positive cells) | ligand-activated currents (electrophysiological recordings) (HC e/n XVB cells; XV. B): + (+: 10-30% positive cells) | ligand-induced inward currents (result in words) (HC e/n XVB cells; differentiated HC e/n XVB cells, AMPA 100µM, NMDA 1mM, kainate 1mM, glutamate 1mM): prominent resonses

N[C@@H](CCC(=O)O)C(=O)O [Glutamate, L-glutamate]
pEC50 [2]: 4.30 | ligand-activated currents (electrophysiological recordings) (HC e/n XVB cells; XV. B/ - EGF): ++ (++: 30-70% positive cells) | ligand-activated currents (electrophysiological recordings) (HC e/n XVB cells; XV. B): - | ligand-activated currents (electrophysiological recordings) (HNMMCV13.1.E [3]): + (+: 10-30% positive cells)

C=C(C)[C@H]1CN[C@H](C(=O)O)[C@H]1CC(=O)O [Kainate, kainic acid]
rise in intracellular calcium concentration (result in words) (HNMMCV13.1.F): did not result in a transient rise | transient calcium currents after the application of agonists and antagonists (Calcium - Imaging) (HNMMCV13.1.F): - | rise in intracellular calcium concentration (result in words) (HNMMCV14.1.A [4]): did not result in a transient rise | transient calcium currents after the application of agonists and antagonists (Calcium - Imaging) (HNMMCV14.1.A [4]): - | rise in intracellular calcium concentration (result in words) (HNMMCV13.1.E [5]): did not result in a transient rise | transient calcium currents after the application of agonists and antagonists (Calcium - Imaging) (HNMMCV13.1.E [5]): - | rise in intracellular calcium concentration (result in words) (HC e/n XV.B cells): reproducible calcium signal | rise in intracellular calcium concentration (result in words) (HNMMCV11.2.0): did not result in a transient rise | transient calcium currents after the application of agonists and antagonists (Calcium - Imaging) (HNMMCV11.2.0): - | ligand-activated currents (electrophysiological recordings) (HNMMCV14.1.A [1]): + / - | ligand-induced inward currents (result in words) (HC e/n XVB cells): evoked responses

CCCC(=O)Nc1ncnc2c1ncn2[C@@H]1O[C@@H]2COP(=O)(O)O[C@H]2[C@H]1OC(=O)CCC [dbcAMP, dibutyryl cyclic adenosine monophosphate]
expression of MAP-2 ([6]; cell line HNMMCV11.2.): induction of the expression of MAP-2 | differentiation of the cells (morphology, markers vimentin and nestin) ([6]; v-myc-expressing lines and clones): partial differentiation
